Assay results published in PubChem BioAssay AID256 (DTP/NCI, 2004).
Where “and” joins values, the source holds several entries; their conditions need not be identical. Equal values may be shown once. Toxic doses and inconclusive results are not listed. The calls were made as follows: active = survival T/C of 150% or more; inactive = T/C below 125% in these data.

Tested on: CD2F1 mice, L1210 leukemia ip, survival T/C
Test: NCI In Vivo Anticancer Drug Screen. Data for tumor model L1210 Leukemia (intraperitoneal) in CD2F1 (CDF1) mice
Conditions: endpoint: mean survival time, higher = longer survival
Method in brief: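 Vehicle-treated tumor-bearing mice served as controls (C) for compound-treated mice (T). Reported figure is T divided by C.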

[1] = dose: 50.0 mg/kg/injection, schedule: Q01DX009 (ip), vehicle: saline
[2] = dose: 100.0 mg/kg/injection, schedule: Q04DX003 (ip), vehicle: saline with Tween-80
[3] = dose: 200.0 mg/kg/injection, schedule: Q04DX003 (ip), vehicle: saline with Tween-80
[4] = dose: 12.5 mg/kg/injection, schedule: Q01DX009 (ip), vehicle: saline
[5] = dose: 25.0 mg/kg/injection, schedule: Q01DX009 (ip), vehicle: saline

Measured: T/C

CN(CCC#N)C(=O)Nc1ccc(Cl)cc1
inactive: dose: 100.0 mg/kg/injection, schedule: Q04DX002 (ip), vehicle: other 106 % of control | dose: 200.0 mg/kg/injection, schedule: Q04DX002 (ip), vehicle: other 101 % of control | dose: 400.0 mg/kg/injection, schedule: Q04DX002 (ip), vehicle: other 106 % of control

CC(=O)S[C@@H]1CC2=CC(=O)CC[C@]2(C)[C@H]2CC[C@@]3(C)[C@@H](CC[C@@]34CCC(=O)O4)[C@H]12
inactive: dose: 100.0 mg/kg/injection, schedule: Q04DX003 (sc), vehicle: steriod suspending solution 95 % of control | dose: 200.0 mg/kg/injection, schedule: Q04DX003 (sc), vehicle: steriod suspending solution 97 % of control | dose: 400.0 mg/kg/injection, schedule: Q04DX003 (sc), vehicle: steriod suspending solution 98 % of control

O=C(O)C(CSC(c1ccccc1)(c1ccccc1)c1ccccc1)NC(c1ccccc1)c1ccccc1 (stereo not given)
inactive: [1] 101 % of control | dose: 100.0 mg/kg/injection, schedule: Q01DX009 (ip), vehicle: saline 98 % of control | dose: 200.0 mg/kg/injection, schedule: Q01DX009 (ip), vehicle: saline 101 % of control | dose: 400.0 mg/kg/injection, schedule: Q01DX009 (ip), vehicle: saline 101 % of control

CC(C)(C)C1CC=CCC1 (stereo not given)
inactive: [2] 98 % of control | [3] 98 % of control

O=C1C(=O)c2ccccc2C(O)=C1CCCc1ccc(OCc2ccccc2)cc1
inactive: dose: 100.0 mg/kg/injection, schedule: Q04DX003 (ip), vehicle: saline 86 % of control | dose: 200.0 mg/kg/injection, schedule: Q04DX003 (ip), vehicle: saline 88 % of control

CCCCCCCCCCCCCCCCOC(=O)c1cc([N+](=O)[O-])cc([N+](=O)[O-])c1Sc1ncnc2nc[nH]c12
inactive: dose: 0.63 mg/kg/injection, schedule: Q01DX005 (ip), vehicle: other 105 % of control | dose: 1.25 mg/kg/injection, schedule: Q01DX005 (ip), vehicle: other 108 % of control | dose: 2.5 mg/kg/injection, schedule: Q01DX005 (ip), vehicle: other 113 % of control | dose: 5.0 mg/kg/injection, schedule: Q01DX005 (ip), vehicle: other 113 % of control | dose: 10.0 mg/kg/injection, schedule: Q01DX005 (ip), vehicle: other 120 % of control | dose: 12.5 mg/kg/injection, schedule: Q01DX005 (ip), vehicle: other 109 % of control | dose: 15.7 mg/kg/injection, schedule: Q01DX005 (ip), vehicle: other 106 % of control | dose: 25.0 mg/kg/injection, schedule: Q01DX005 (ip), vehicle: other 117 % of control and 112 % of control | dose: 31.3 mg/kg/injection, schedule: Q01DX005 (ip), vehicle: other 124 % of control | dose: 50.0 mg/kg/injection, schedule: Q01DX005 (ip), vehicle: other 115 % of control and 122 % of control | dose: 100.0 mg/kg/injection, schedule: Q01DX005 (ip), vehicle: other 116 % of control | dose: 400.0 mg/kg/injection, schedule: Q01DX005 (ip), vehicle: other 118 % of control

O=C(OC1(c2ccccc2)C2CCC1CC2)c1ccc([N+](=O)[O-])cc1 (stereo not given)
inactive: dose: 12.5 mg/kg/injection, schedule: Q04DX002 (ip), vehicle: saline with Tween-80 96 % of control | dose: 25.0 mg/kg/injection, schedule: Q04DX002 (ip), vehicle: saline with Tween-80 93 % of control | dose: 50.0 mg/kg/injection, schedule: Q04DX002 (ip), vehicle: saline with Tween-80 101 % of control

CN(C)C(=O)On1cccc1C#N
inactive: dose: 0.78 mg/kg/injection, schedule: Q01DX001 (ip), vehicle: saline 95 % of control | dose: 1.56 mg/kg/injection, schedule: Q01DX001 (ip), vehicle: saline 98 % of control | dose: 3.13 mg/kg/injection, schedule: Q01DX001 (ip), vehicle: saline 98 % of control

Cc1c(N)nc(C(CC(N)=O)NCC(N)C(N)=O)nc1C(=O)NC(C(=O)NC(C)C(O)C(C)C(=O)NC(C(=O)NCCc1nc(-c2nc(C(=O)NCCCNCCCc3ccccn3)cs2)cs1)C(C)O)C(OC1OC(CO)C(O)C(O)C1OC1OC(CO)C(O)C(OC(N)=O)C1O)c1cnc[nH]1 (stereo not given)
inactive: dose: 0.2 mg/kg/injection, schedule: Q01DX009 (ip), vehicle: water 101 % of control | dose: 0.4 mg/kg/injection, schedule: Q01DX009 (ip), vehicle: water 107 % of control | dose: 0.8 mg/kg/injection, schedule: Q01DX009 (ip), vehicle: water 98 % of control | dose: 1.6 mg/kg/injection, schedule: Q01DX009 (ip), vehicle: water 104 % of control | dose: 3.2 mg/kg/injection, schedule: Q01DX009 (ip), vehicle: water 104 % of control | dose: 6.25 mg/kg/injection, schedule: Q01DX009 (ip), vehicle: saline 111 % of control | dose: 6.4 mg/kg/injection, schedule: Q01DX009 (ip), vehicle: water 107 % of control | [4] 103 % of control | [5] 108 % of control | [1] 105 % of control

O=[N+]([O-])c1ccc(F)cc1
inactive: dose: 10.0 mg/kg/injection, schedule: Q04DX003 (ip), vehicle: saline 104 % of control | dose: 20.0 mg/kg/injection, schedule: Q04DX003 (ip), vehicle: saline 102 % of control | dose: 40.0 mg/kg/injection, schedule: Q04DX003 (ip), vehicle: saline 102 % of control

N=c1c2cnn(C3OC(CO)C(O)C3O)c2ncn1N (stereo not given)
inactive: dose: 6.25 mg/kg/injection, schedule: Q01DX009 (ip), vehicle: water 103 % of control | dose: 12.5 mg/kg/injection, schedule: Q01DX009 (ip), vehicle: water 115 % of control and 112 % of control | dose: 50.0 mg/kg/injection, schedule: Q01DX009 (ip), vehicle: water 91 % of control

CCN(CC)CCOc1ccc2c(c1)C(=O)c1cc(OCCN(CC)CC)ccc1-2
inactive: [4] 95 % of control | [5] 98 % of control | [1] 101 % of control

O=S1OCC2(CO1)COS(=O)OC2 (stereo not given)
inactive: dose: 3.13 mg/kg/injection, schedule: Q01DX001 (ip), vehicle: saline with Tween-80 108 % of control | dose: 6.25 mg/kg/injection, schedule: Q01DX001 (ip), vehicle: saline with Tween-80 100 % of control

C[Si](C)c1cccc(Cl)c1
inactive: dose: 100.0 mg/kg/injection, schedule: Q01DX009 (ip), vehicle: saline with Tween-80 104 % of control | dose: 200.0 mg/kg/injection, schedule: Q01DX009 (ip), vehicle: saline with Tween-80 100 % of control

Cc1cc(=O)[nH]c2cc(Br)ccc12
inactive: dose: 100.0 mg/kg/injection, schedule: Q01DX001 (ip), vehicle: saline with Tween-80 91 % of control | dose: 200.0 mg/kg/injection, schedule: Q01DX001 (ip), vehicle: saline with Tween-80 89 % of control | dose: 400.0 mg/kg/injection, schedule: Q01DX001 (ip), vehicle: saline with Tween-80 87 % of control

Nc1ncnc2c1[nH]c(=O)n2C1OC(CO)C2OC21 (stereo not given)
inactive: dose: 12.5 mg/kg/injection, schedule: Q01DX005 (ip), vehicle: distilled water + Tween-80 102 % of control | dose: 25.0 mg/kg/injection, schedule: Q01DX005 (ip), vehicle: distilled water + Tween-80 95 % of control | dose: 50.0 mg/kg/injection, schedule: Q01DX005 (ip), vehicle: distilled water + Tween-80 101 % of control | dose: 100.0 mg/kg/injection, schedule: Q01DX005 (ip), vehicle: distilled water + Tween-80 92 % of control | dose: 200.0 mg/kg/injection, schedule: Q01DX005 (ip), vehicle: distilled water + Tween-80 95 % of control

CCCCCCCCCCCCNC(=O)OCCN(CCOC(=O)NCCCCCCCCCCCC)C(=O)COc1ccc(Cl)cc1
inactive: dose: 100.0 mg/kg/injection, schedule: Q04DX003 (ip), vehicle: other 86 % of control | dose: 200.0 mg/kg/injection, schedule: Q04DX003 (ip), vehicle: other 91 % of control | dose: 400.0 mg/kg/injection, schedule: Q04DX003 (ip), vehicle: other 93 % of control

O=C(CCl)Nc1cc(C(F)(F)F)ccc1Cl
inactive: dose: 6.25 mg/kg/injection, schedule: Q01DX009 (ip), vehicle: saline with Tween-80 101 % of control | dose: 12.5 mg/kg/injection, schedule: Q01DX009 (ip), vehicle: saline with Tween-80 101 % of control | dose: 25.0 mg/kg/injection, schedule: Q01DX009 (ip), vehicle: saline with Tween-80 104 % of control | [2] 104 % of control | [3] 97 % of control | dose: 400.0 mg/kg/injection, schedule: Q04DX003 (ip), vehicle: saline with Tween-80 97 % of control

COC(=O)c1c(C(=O)OC)c(-c2ccc(Cl)c(Cl)c2)n2c1CCC2
inactive: dose: 50.0 mg/kg/injection, schedule: Q01DX009 (ip), vehicle: Klucel (hydroxypropylcellulose) (HPC) 91 % of control | dose: 100.0 mg/kg/injection, schedule: Q01DX009 (ip), vehicle: Klucel (hydroxypropylcellulose) (HPC) 88 % of control | dose: 200.0 mg/kg/injection, schedule: Q01DX009 (ip), vehicle: Klucel (hydroxypropylcellulose) (HPC) 98 % of control
